Results from patent US10076505B2, “Inhalation formulations of Treprostinil” (priority 2003, dated 2018).

Columns and labels:
Buerger's disease = experiment: Case report: subcutaneous Treprostinil in severe Buerger's disease (Example IX); type: in vivo, human
Experimental: At this point, subcutaneous Treprostinil therapy was administered to the patient. Treprostinil was delivered chronically by continuous subcutaneous infusion using a pager-sized ambulatory infusion pump (Medtronic Minimed 407C, Minneapolis, Minn.)). […] The patient is now on a maintenance dose of Treprostinil 12 ng/kg/min from 9 PM-9 AM every seventh day, with no drug for the next 7 days.

digital ischemic lesions = experiment: Subcutaneous Treprostinil in scleroderma patients with digital ischemic lesions (Example VII); type: in vivo, human; settings: continuous subcutaneous infusion, 12 weeks, increasing dose
Experimental: Scleroderma patients having at least one lesion (i.e., small sore or area of tissue gangrene) present on a hand or finger are dosed with increasing amounts of Treprostinil over 12 weeks. The medication is delivered by a small pump that is connected to a catheter placed under the skin. In this manner, increasing dosages of Treprostinil are administered to patients by chronic continuous subcutaneous infusion. Specifically, a 1.0 mg/mL formulation of Treprostinil sodium) (REMODULIN®) is administered subcutaneously using a standard micro-infusion, positive-pressure infusion pump designed for subcutaneous drug delivery (Mini-Med). Patients receive an initial dose of 2.5 ng/kg/min of study drug. […] After that, the dose is raised by 2.50 ng/kg/min each week until not tolerated or once a target dose is reached. Dosing is increased weekly unless not tolerated by the patient. […] One example of a target dose is 15 ng/kg/min. The minimum dose is usually not less than 0.625 ng/kg/min.

`CCCCC[C@H](O)CC[C@@H]1[C@H]2Cc3cccc(OCC(=O)O)c3C[C@H]2C[C@H]1O` [UT-15, 9-deoxy-2′,9-alpha-methano-3-oxa-4,5,6-trinor-3,7-(1′,3′-interphenylene)-13,14-dihydro-prostaglandin F1] was tested, and the “dose limiting side effects” value (Buerger's disease; in vivo) was “diarrhea and jaw pain”, the Doppler studies (Buerger's disease; one patient) was “improvement in pulse volume recording wave form” and the “return of ischemic symptoms after attempts to discontinue” value (Buerger's disease; one patient) was at most 1 week. For the same compound, the maximum tolerated dose (Buerger's disease; one patient, continuous subcutaneous infusion) was 12.5 ng/kg/min, the “ulcer on right middle finger” value (Buerger's disease; one patient, maintenance 12 ng/kg/min) was “complete healing” and the “patient-reported comfort and activities of daily living” value (Buerger's disease; one patient, sc infusion 12.5 ng/kg/min) was “improved comfort and increased ability to participate in activities of daily living”. For the same compound, the “lesions present before treatment” value (digital ischemic lesions) was “reduction in the number, size and severity” and the “new lesions associated with scleroderma” value (digital ischemic lesions) was “fewer new lesions”.
